Experiment [1] can be described thus: cells.
Experiment [2] can be described thus: HepG2 cell cytotoxicity, dose response, cytotoxicity control for Shn3 inhibitor project, CellTiter-Glo, cherry-picked (AID 624134). The format is functional, cell-based. In general terms: Cellular ATP, detected with luciferase, serves as a proxy for viable cell number.
Experiment [3] in a line: Shn3 3'UTR reporter inhibitors, dose response, cell-based, Clone20 osteoblasts, firefly luciferase, cherry-picked (AID 624132).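 Note: firefly luciferase luminescence from reporter carrying the Shn3 3'UTR in osteoblasts.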 The format is functional.
Experiment [4] concerns BJ. The experiment is described as follows: cytotoxicity toward BJ-TERT-LT-ST fibroblasts, dose response, cell-based, RAS-independent, luminescence (AID 1935).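 Note: BJ fibroblasts immortalized with TERT plus LT and ST oncogenes.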 The format is functional. The conditions noted are these: Homo sapiens.
Experiment [5] has as its system BJ. The experiment is described as follows: cells. The format is functional, cell-based. The conditions noted are these: Homo sapiens.
Experiment [6] deals with BJ. The experiment is described as follows: cytotoxicity toward BJ-TERT fibroblasts, dose response, cell-based, RAS-independent, luminescence (AID 1933). The format is functional. The conditions noted are these: Homo sapiens.
Experiment [7] is described as follows: cytotoxicity toward DRD oncogenic fibroblasts, dose response, cell-based, non-viral oncogenic, luminescence (AID 1934). The format is functional. The conditions noted are these: Homo sapiens.
A short description of experiment [8]: ADAM10 inhibitors, peptide cleavage, dose response, biochemical, QFRET (AID 743254).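 Note: ADAM10 enzyme with the DM2 quenched FRET peptide as substrate; EDANS fluorescence gain as the protease cuts the substrate; inhibitor potency against ADAM10 proteolytic activity.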
The target of experiment [9] is Disintegrin and metalloproteinase domain-containing protein 17 (Homo sapiens, UniProt P78536). The experiment is described as follows: ADAM17 protease inhibitors, dose response, counter-screen for ADAM10 exosite inhibitor project, biochemical, quenched FRET substrate (AID 743253).
Sequence of Disintegrin and metalloproteinase domain-containing protein 17 (P78536 whole entry, the tested form may be a part): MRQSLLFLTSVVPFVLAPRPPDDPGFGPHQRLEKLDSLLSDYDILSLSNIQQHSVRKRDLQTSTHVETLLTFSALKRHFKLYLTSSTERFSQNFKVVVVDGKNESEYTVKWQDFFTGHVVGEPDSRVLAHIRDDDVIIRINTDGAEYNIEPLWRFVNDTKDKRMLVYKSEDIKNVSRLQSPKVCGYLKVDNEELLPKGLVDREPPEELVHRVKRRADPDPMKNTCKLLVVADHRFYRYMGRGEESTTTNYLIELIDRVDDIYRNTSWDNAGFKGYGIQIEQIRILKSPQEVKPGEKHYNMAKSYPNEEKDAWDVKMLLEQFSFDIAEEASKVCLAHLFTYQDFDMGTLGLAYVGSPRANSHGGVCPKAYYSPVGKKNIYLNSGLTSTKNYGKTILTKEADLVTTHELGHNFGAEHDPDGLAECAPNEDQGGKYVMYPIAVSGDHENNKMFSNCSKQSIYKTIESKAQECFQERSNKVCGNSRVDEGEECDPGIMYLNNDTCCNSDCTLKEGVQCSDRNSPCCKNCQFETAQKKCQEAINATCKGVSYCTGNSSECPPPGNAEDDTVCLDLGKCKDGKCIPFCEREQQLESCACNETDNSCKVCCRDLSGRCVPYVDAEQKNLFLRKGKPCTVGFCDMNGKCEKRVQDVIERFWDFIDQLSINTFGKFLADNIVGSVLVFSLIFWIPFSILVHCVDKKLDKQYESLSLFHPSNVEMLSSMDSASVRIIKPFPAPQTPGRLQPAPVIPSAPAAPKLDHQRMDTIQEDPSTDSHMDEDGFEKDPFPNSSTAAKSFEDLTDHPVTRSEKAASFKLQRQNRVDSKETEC
The nature of experiment [10]: control 3'UTR Renilla luciferase suppression, dose response, counter-screen for Shn3 inhibitor project, cell-based, Clone20-Shn3RL, cherry-picked (AID 624133). The format is functional. A general note: A counterscreen serves to expose hits that act by an unwanted route or on another target.
In experiment [11] the target is Photoreceptor-specific nuclear receptor (Homo sapiens, UniProt Q9Y5X4). The format is functional, cell-based.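 Note: CHO-S cells with Gal4-NCOR and VP16-NR2E3 two-hybrid luciferase reporter.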
Sequence of Photoreceptor-specific nuclear receptor (Q9Y5X4 whole entry, the tested form may be a part): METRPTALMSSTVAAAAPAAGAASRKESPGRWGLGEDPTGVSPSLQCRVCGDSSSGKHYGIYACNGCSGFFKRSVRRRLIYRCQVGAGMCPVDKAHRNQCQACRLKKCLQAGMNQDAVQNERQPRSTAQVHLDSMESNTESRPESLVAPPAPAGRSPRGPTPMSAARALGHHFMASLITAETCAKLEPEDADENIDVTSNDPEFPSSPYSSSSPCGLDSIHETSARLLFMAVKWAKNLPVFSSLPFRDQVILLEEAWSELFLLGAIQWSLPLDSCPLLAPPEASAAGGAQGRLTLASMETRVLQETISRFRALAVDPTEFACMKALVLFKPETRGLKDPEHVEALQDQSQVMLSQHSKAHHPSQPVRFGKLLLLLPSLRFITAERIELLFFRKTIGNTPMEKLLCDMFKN
The target of experiment [12] is T1, Rac GTPase-activating protein 1 (Homo sapiens, UniProt Q9H0H5).
T1 sequence (Q9H0H5 whole entry): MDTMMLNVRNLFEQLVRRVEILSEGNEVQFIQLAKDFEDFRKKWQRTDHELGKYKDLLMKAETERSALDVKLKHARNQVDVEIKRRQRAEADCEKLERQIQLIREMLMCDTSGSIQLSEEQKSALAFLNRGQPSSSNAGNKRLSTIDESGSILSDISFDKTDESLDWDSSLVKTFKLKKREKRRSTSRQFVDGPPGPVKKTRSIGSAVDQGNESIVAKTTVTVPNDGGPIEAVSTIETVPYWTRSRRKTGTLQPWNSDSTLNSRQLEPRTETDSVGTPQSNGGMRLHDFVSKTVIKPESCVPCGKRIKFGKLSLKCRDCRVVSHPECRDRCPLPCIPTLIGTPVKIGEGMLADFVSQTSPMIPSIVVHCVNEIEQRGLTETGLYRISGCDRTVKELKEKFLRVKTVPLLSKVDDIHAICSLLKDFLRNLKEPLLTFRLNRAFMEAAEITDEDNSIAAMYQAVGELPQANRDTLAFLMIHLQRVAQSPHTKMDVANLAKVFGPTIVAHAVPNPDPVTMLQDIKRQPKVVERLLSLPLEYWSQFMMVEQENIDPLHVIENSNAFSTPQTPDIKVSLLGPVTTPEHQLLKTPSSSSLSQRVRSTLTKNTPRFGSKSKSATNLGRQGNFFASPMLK
The experiment is described as follows: MgcRacGAP GTPase-activating activity inhibitors, confirmation, biochemical, ADP Hunter fluorescence, primary and confirmatory (AID 624330). Format: functional.

Experiment [13] in a line: human group III sPLA2 inhibitors, dose response, biochemical, QFRET, IC50 (AID 743457).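 Note: green fluorescence rise as the enzyme cleaves BODIPY PC-A2 in liposomes; potency for inhibition of the enzyme.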
Experiment [14] deals with Nonstructural protein 1 (Influenza A virus, UniProt Q194T2). The format is functional, Influenza A virus (A/California/07/2009(H1N1)).
Sequence of Nonstructural protein 1 (Q194T2 whole entry): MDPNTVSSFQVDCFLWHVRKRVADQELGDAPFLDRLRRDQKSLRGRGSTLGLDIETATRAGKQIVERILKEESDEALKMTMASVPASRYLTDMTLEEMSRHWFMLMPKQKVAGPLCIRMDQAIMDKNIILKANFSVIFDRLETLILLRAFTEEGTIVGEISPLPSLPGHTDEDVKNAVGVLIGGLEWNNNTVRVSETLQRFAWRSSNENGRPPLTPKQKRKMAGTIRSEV
A short description of experiment [15]: HeLa cell cytotoxicity, dose response, cytotoxicity control for MgcRacGAP inhibitor project (AID 624300). The format is functional.
The target of experiment [16] is T2, DNA repair protein RAD52 homolog (Homo sapiens, UniProt P43351).
T2 sequence (P43351 whole entry): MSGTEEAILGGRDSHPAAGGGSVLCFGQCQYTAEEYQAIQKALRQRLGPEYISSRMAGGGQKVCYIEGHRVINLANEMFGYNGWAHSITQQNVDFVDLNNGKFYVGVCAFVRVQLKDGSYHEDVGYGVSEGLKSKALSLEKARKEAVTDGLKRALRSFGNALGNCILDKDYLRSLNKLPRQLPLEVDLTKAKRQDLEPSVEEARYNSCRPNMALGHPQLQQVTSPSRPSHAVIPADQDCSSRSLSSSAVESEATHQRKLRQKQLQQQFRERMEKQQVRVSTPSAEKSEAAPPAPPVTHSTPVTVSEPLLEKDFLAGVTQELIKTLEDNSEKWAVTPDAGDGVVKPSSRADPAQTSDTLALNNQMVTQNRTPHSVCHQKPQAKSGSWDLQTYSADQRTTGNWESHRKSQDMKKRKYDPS
Format: functional, biochemical.

The nature of experiment [17]: cells. The conditions noted are these: A549.
Experiment [18] deals with Paired box protein Pax-8 (Homo sapiens, UniProt Q06710). The experiment is described as follows: inhibitors of PAX8-driven TPO luciferase reporter, dose response, RMG-I cells, cherry-pick (AID 687027).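 Note: luciferase reporter driven by Pax8 target thyroperoxidase promoter measured by SteadyGlo luminescence.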 Format: functional, cell-based. In general terms: Reporter assays use an easily measured gene product as a stand-in for the process of interest.
Sequence of Paired box protein Pax-8 (Q06710 whole entry): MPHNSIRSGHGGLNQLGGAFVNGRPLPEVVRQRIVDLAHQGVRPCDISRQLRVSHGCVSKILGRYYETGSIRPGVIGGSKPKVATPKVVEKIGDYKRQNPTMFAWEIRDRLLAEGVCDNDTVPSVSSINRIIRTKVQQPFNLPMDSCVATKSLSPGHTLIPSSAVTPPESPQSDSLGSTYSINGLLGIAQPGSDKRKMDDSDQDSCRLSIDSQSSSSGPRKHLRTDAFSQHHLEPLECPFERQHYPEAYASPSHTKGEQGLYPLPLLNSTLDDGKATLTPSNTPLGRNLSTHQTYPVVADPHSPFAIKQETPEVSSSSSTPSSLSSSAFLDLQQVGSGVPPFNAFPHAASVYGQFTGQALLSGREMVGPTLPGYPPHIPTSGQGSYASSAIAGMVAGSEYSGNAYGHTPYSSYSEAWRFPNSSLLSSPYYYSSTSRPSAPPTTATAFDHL
The nature of experiment [19]: A2780 ovarian cancer cell cytotoxicity, dose response, cytotoxicity control, plate reader, dry powder samples (AID 743046). Format: functional, cell-based.
The nature of experiment [20]: NIH:OVCAR-3 ovarian cancer cell cytotoxicity, dose response, PAX8 inhibitor project, plate reader, dry powder samples (AID 743044). The format is functional, cell-based.
Experiment [21] is described as follows: cytotoxicity in OVCAR8 ovarian cancer cells, dose response, PAX8 project, cell-based, plate reader, dry powder samples (AID 743197). The format is functional. The conditions noted are these: OVCAR-8.
A short description of experiment [22]: non-specific cell cytotoxicity, dose response, cytotoxicity control for PAX8 inhibitor project, plate reader, dry powder samples (AID 743021). Format: functional, cell-based.
Experiment [23] is described as follows: IOSE-T80 ovarian epithelial cell cytotoxicity, dose response, cytotoxicity control for PAX8 inhibitor project, plate reader, dry powder samples (AID 743045). The format is functional, cell-based.
A short description of experiment [24]: cytotoxicity in HeLa cells, dose response, cytotoxicity control, cell-based, plate reader, dry powder (AID 651946). The format is functional.
Experiment [25] can be described thus: Late stage assay provider results from the probe development effort to identify inhibitors of the Plasmodium falciparum M18 Aspartyl Aminopeptidase (M18AAP): radiolabel-based cell-based dose response assay to identify compounds that inhibit P. falciparum growth in RBCs, Set 2.. The format is functional.
A short description of experiment [26]: MITF: Counter assay: A375 proliferation Measured in Cell-Based System Using Plate Reader - 2084-03_Inhibitor_Dose_DryPowder_Activity_Set8. The format is functional. The conditions noted are these: A-375.
The nature of experiment [27]: TRPM1 promoter luciferase reporter signal decrease, dose response, MITF inhibitor project, cell-based, SK-MEL-5, dry powder, set 8 (AID 624430). The format is functional.
A short description of experiment [28]: MITF Orthogonal Assay: SK-MEL-5 CTG Assay Measured in Cell-Based System Using Plate Reader - 2084-02_Inhibitor_Dose_DryPowder_Activity_Set7. The format is functional.
A short description of experiment [29]: IGROV1 ovarian cancer cell cytotoxicity, dose response, PAX8 inhibitor project, plate reader, dry powder samples (AID 743043). Format: functional, cell-based. The note with it: IGROV-1.
Experiment [30] can be described thus: cytotoxicity in OV-90 ovarian cancer cells, dose response, PAX8 inhibitor project, cell-based, plate reader, dry powder, SA8 (AID 743149). Format: functional.
A short description of experiment [31]: cytotoxicity dependent on PAX8, dose response, cell-based, plate reader, dry powder (AID 743049). The format is functional.
Experiment [32] is described as follows: cytotoxicity in COV434 cells, dose response, cytotoxicity control for PAX8 inhibitor project, cell-based, plate reader, dry powder, SA7 (AID 743145). Format: functional.
Experiment [33] is described as follows: BHK-21 cell cytotoxicity, cytotoxicity control for flavivirus guanylyltransferase probe project, secondary screen (AID 624078). Format: functional.
Experiment [34] concerns the target Protein disulfide-isomerase (Homo sapiens, UniProt P07237). The experiment is described as follows: PDI inhibitors, insulin turbidity readout, confirmation, biochemical, dry powder samples, set 2 (AID 652146).

Activity calls are given as the source filed them.

Sequence of Protein disulfide-isomerase (P07237 whole entry): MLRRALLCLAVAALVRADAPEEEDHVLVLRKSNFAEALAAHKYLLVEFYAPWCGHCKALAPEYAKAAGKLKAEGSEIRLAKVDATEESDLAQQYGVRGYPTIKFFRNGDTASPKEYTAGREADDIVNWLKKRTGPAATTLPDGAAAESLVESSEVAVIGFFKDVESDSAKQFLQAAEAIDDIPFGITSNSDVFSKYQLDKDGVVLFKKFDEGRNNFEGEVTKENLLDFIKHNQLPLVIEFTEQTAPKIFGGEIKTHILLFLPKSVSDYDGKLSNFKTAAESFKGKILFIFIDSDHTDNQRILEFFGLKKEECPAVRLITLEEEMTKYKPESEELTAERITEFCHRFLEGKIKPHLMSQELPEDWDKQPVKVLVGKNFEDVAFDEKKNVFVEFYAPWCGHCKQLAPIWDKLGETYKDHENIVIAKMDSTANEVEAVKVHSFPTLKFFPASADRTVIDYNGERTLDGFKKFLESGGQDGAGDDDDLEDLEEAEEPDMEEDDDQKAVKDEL

Consider `Cc1cccn2c(=O)c(/C=C(\C#N)C(=O)NC3CCS(=O)(=O)C3)c(N3CCC(C(N)=O)CC3)nc12` (stereo unspecified), for which the AC50 (commonly the concentration at which the activity in the assay is half-maximal) in [1] is 4.38 µM (active).

On to `COc1ccc(C)c2sc(N(CCCN(C)C)C(=O)c3ccc(S(=O)(=O)N4CCc5ccccc5C4)cc3)nc12`, for which the AC50 was 2.98 µM (active) in [2], 4.4 µM (active) in experiment [3] and 5.51 µM (active) in experiment [10]. The EC50 (commonly the concentration needed to bring the measured effect to its halfway point) is 2.13 µM (inconclusive) in experiment [4], 5.65 µM (active) in [5], 1.48 µM (inconclusive) in experiment [6] and 4.25 µM (active) in [7]. Further, the IC50 in experiment [8] and in [9] was > 69.5 µM (inactive) each time.

Take `CN(C)c1ccc(/C=C/c2cc[n+](C)c3ccccc23)cc1`: the IC50 – broadly, the concentration that inhibits the measured activity by half – was 7.07 µM (active) in experiment [11], 38.5 µM (active) in experiment [12], 30.1 µM (inactive) in experiment [13] and 10.6 µM (active) in experiment [14]. Also, the half-maximal cytotoxic concentration (CC50) (commonly the concentration that lowers cell viability or growth by half) in experiment [15] was 54.1 µM (active). The concentration at half-maximal activity (AC50) in [16] is 1.23 µM (active).

In the case of `CC(=O)c1cccc(-c2ccnc3c2CC(C(=O)NCc2ccc(F)c(F)c2)O3)c1` (stereo unspecified), the half-maximal activity concentration (AC50) in [17] is 3.92 µM (active).

Consider `C[C@H]1CCCCO[C@H](CN(C)S(=O)(=O)c2ccc(Cl)cc2)[C@@H](C)CN([C@@H](C)CO)C(=O)c2cc(NS(=O)(=O)c3ccc(F)cc3)ccc2O1`, for which the results for the concentration at half-maximal activity (AC50) in [18] and in experiment [19] were 8.27 µM (active) and 58.4 µM (active), respectively.

As for `Cc1ccc(S(=O)(=O)Nc2ccc3c(c2)C(=O)N([C@H](C)CO)C[C@H](C)[C@H](CN(C)Cc2ccc(C(F)(F)F)cc2)OCCCC[C@H](C)O3)cc1`, the AC50 is 19.4 µM (active) in experiment [20]; 9.98 µM (active) in [18]; 24.7 µM (active) in [21]; 41.7 µM (active) in experiment [22]; 46.2 µM (active) in [23].

In the case of `N#Cc1cccc(CSc2nnc(-c3ccccc3)o2)c1`, in [24], the AC50 was > 52 µM (inactive).

For the molecule `Oc1ccc(CCNc2c3c(nc4ccccc24)CCCC3)cc1O`, in [25], the IC50 was 3.6 µM (active).

In the case of `Cc1cccc(NC2=CC(=O)c3ccccc3C2=O)c1`, the AC50 in experiment [26] was > 70 µM (inactive); in experiment [27], 18.9 µM (active); in [28], 0.66 µM (active).

On to `N#C[C@H]1N[C@H](CO)[C@@H]1c1ccc(C#Cc2ccccc2F)cc1`, for which the half-maximal activity concentration (AC50) in experiment [20] was 49.8 µM (active); in experiment [29], 45.2 µM (active); in [30], > 70 µM (inactive); in experiment [31], 30.1 µM (active); in experiment [32] it was > 70 µM (inactive).

In the case of `O=S(=O)(Nc1cc(Cl)c(O)c2ccccc12)c1ccc(F)cc1`, in experiment [33], the cytotoxic concentration (CC50) is 12.5 µM (active).

Turning to `CCOC(=O)C1(CCOc2ccccc2)CCN(Cc2ccc3[nH]c(=O)oc3c2)CC1`, the AC50 in [34] was > 30 µM (inactive).

For the origin of these results see ChEMBL document CHEMBL1201862, “PubChem BioAssay data set” (2004).
